This note sets out measurements from US5420289A, “Substituted indole-, indene-, pyranoindole- and tetrahydrocarbazole-alkanoic acid derivatives as inhibitors of PLA2 and lipoxygenase” (American Home Products Corporation, priority 1993, dated 1995).

The test system of experiment [1] is synthesis of LTB4 by rat glycogen-elicited polymorphonuclear leukocytes (PMN). Put plainly: inhibition of LTB4 synthesis by rat glycogen-elicited PMN (Example 72). It is filed as cell-based, rat (female Wistar). The conditions noted are these: Leukocyte. The source says:
This is especially true with respect to 5,12-diHETE, which is also denoted as LTB4 lsee Ford-Hitchinson, J. Roy. Soc. Med., 74, 831 (1981)]. Compounds which inhibit the PLA2 -mediated release of arachidonic acid thereby effectively prevent the oxidation of arachidonic acid to the various leukotriene products via the lipoxygenase cascade. Accordingly, the specificity of action of PLA2 inhibitors can be determined by the activity of test compounds in this assay, which measures the ability of compounds to inhibit the synthesis of LTB4 by rat glycogen-elicited polymorphonuclear leukocytes (PMN) in the presence of exogenous substrate.
The assay is carded out as follows:
(§1) Rat polymorphonuclear leukocytes (PMNs) are obtained from female Wistar rats (150-200 g) which receive an injection of 6% glycogen (10 ml i.p.). Rats are sacrificed 18-24 hours post injection by CO2 asphyxiation and the elicited cells are harvested by peritoneal lavage using physiological saline (0.9% NaC1). The exudate is centrifuged at 400 ×g for 10 minutes. The supernatant fluid is discarded and the cell pellet is resuspended to a concentration of 2.0×10^7 cells/mL in HBSS containing Ca^++ and Mg^++ and 10 mM L-cysteine.
(§2) To 1 mL aliquots of cell suspension, test drugs or vehicle are added, then preincubated at 37° C. for 10 minutes. A23187 (1 mM), [^3 H]-AA (3.0 mCi/mL) and unlabeled AA (1 mM) are then added and the samples are further incubated for 10 minutes. The reaction is terminated by centrifugation and pelleting cells. Supernatants are then analyzed by HPLC analysis on a 15 cm×4.6 mm ID supelcosil LC-18 (Supelco)(3M) column, using a two solvent system at a flow rate of 1.4 mL total flow as follows:
Gradient: (system is equilibrated with Solvent A)
Percent solvent changes are accomplished in a linear fashion.
Injections: […] of each supernatant is injected directly onto column and ^3 H arachidonic acid metabolites are monitored using an on-line radioactivity detector (Ramona, IN/U S, Fairfield, NJ).
Standards: 10^4 -2.0×10^4 dpm of eicosanoids of interest are injected in […] EtOH cocktail.
Co-chromatography with standard [^3 H] leukotriene B4 (LTB4) in medium of stimulated PMN exposed to drug is compared to that found in medium of stimulated cells exposed to no drug, generating percent inhibition.
Results are expressed as percent inhibition at a given compound dose or as an IC50 value.

The test system of experiment [2] is cyclooxygenase (PGE2 synthesis) in rat polymorphonuclear leukocytes (PMN). The experiment can be described thus: inhibition of PGE2 synthesis (cyclooxygenase) by rat glycogen-elicited PMN (Example 73). The format is cell-based, rat (female Wistar). The conditions noted are these: Leukocyte, at 0.5 mM, * (negative) denotes a potentiation. As for the experimental part:
as §1, §2
In this assay, the procedure of Example 72 is carried out as described. However, in order to determine cyclooxygenase activity, the samples are cochromatographed with authentic reference [^3 H]-PGE2.
The results be calculated as in Example 72 and presented below: […]

In another experiment the target is T1, human platelet PLA2 (Homo sapiens, UniProt P14555).
T1 construct: Semi-purified human platelet acid extract PLA2; from tissue; host or cells: human platelets (semi-purified acid extract)
T1 sequence (P14555 21-144): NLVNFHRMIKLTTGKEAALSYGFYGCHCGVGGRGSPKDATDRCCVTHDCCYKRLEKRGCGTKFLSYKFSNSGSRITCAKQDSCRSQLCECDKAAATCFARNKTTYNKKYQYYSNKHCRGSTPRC
Put plainly: in vitro isolated phospholipase A2 assay, human platelet PLA2 (Example 74). It is filed as biochemical. On the set-up: dose or concentration left out as unconfirmed. As to conditions: read-out: % Inhibition, HP (human platelet). As for the experimental part:
The compounds of the invention are tested in an in vitro isolated phospholipase A2 assay to determine the ability of the test compounds to inhibit the release of arachidonic acid from an arachidonic acid-containing substrate by the action of phospholipase A2 enzyme from human and non-human sources.
(§3) This assay is carried out as follows:
Into a 15 mL polypropylene tube are added the following:
^6 Two human PLA2 enzymes are used:
a) Semi-purified human platelet acid extract PLA2 (in 10 mM
sodium acetate buffer, pH 4.5). Remove protein precipitate by
centrifugation at about 2200 rpm for 10 minutes.
Incubate the 100mL reaction mixture for 10 minutes at 37° C. in a shaking water bath. The reaction is terminated by the addition of 2 mL tetrahydrofuran, followed by vortexlag. NH2 columns (100 mg/mL--Analytichem International) are conditioned with 0.5 mL tetrahydrofuran followed by 0.5 mL tetrahydrofuran/water (2 mL:0.1 mL, v/v).
The sample is loaded onto the columns and slowly drawn through them. The hydrolyzed arachidonic acid retained in the columns is eluted therefrom with 1 mL tetrahydrofuran/glacial acetic acid (2%). The arachidonic acid is transferred to scintillation vials and quantitated by b-counting analysis. A "total counts" sample is prepared by pipetting […] ^3 H-arachidonate E. coli directly into a scintillation vial to which is added 1 mL tetrahydrofuran. 10 mL aquasol (scintillation cocktail) is added to all samples. [formula]

Experiment [3] addresses T2, human synovial fluid PLA2 (Homo sapiens, UniProt P14555).
T2 sequence (P14555 21-144): T1 sequence (P14555 21-144)
Put plainly: in vitro isolated phospholipase A2 assay, human synovial fluid PLA2 (Example 74). Further details: inhibition / % Inhibition, HSF (human synovial fluid): dose or concentration left out as unconfirmed. It is filed as biochemical. The conditions noted are these: read-out: % Inhibition, HSF (human synovial fluid). In outline:
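Human synovial fluid PLA2 (purified) acts on ³H-arachidonate-labelled E. coli substrate, 10 minutes at 37° C with shaking; stopped with tetrahydrofuran. Released arachidonic acid is isolated on NH2 columns, eluted with tetrahydrofuran/2% acetic acid and quantitated by β-counting against a total-counts sample.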

In experiment [4] the test system is 5-lipoxygenase in human whole blood. Put plainly: inhibition of 5-lipoxygenase in human whole blood (Example 79). The conditions noted are these: for % Inhibition of LTB4: 25 μM; for pIC50: human whole blood, read-out: IC50 (inhibition of LTB4). It is filed as cell-based. As for the experimental part: The assay of this Example measures the ability of the compounds tested to inhibit 5-lipoxygenase in human whole blood.
as §3
Blood is obtained in 50-100 ml quantities from male donors. White blood cell counts and differentials are made. Two ml of blood are placed in a 15 ml polypropylene test tube. Compounds are solubilized in dimethylsulfoxide and diluted 1:10 in 10% bovine serum albumin in phosphate buffered saline, pH 7.4 resulting in a final dimethylsulfoxide concentration of 0.1% in the blood. Then, compounds are added to the blood in a shaking water bath at 37° C. for 10 minutes prior to the addition of […] calcium ionophore (A23187; Sigma). After ionophore administration, whole blood samples are mixed and incubated for 20 minutes at 37° C. in a shaking water bath. Incubation is terminated by placing samples in an ice bath and immediately adding ethylene glycol-bis-(b-aminoethyl ether)-N,N,N',N'-tetraacetic acid (10 mM). Samples are mixed and centrifuged at 1200 × g for 15 minutes at 4° C. Preparation of samples for evaluation by RIA or ELISA is carried out by the following protocol. Plasma is removed from sample tubes, placed in 15 ml polypropylene test tubes containing 8 ml methanol, and then vortexed to precipitate protein. Samples are stored at -70° C. overnight. The next day, samples are centrifuged at 200 × g for 15 minutes at 4° C. to pellet the precipitate. Samples are dried in a Savant speed vac concentrator, reconstituted to original volume with ice cold RIA or ELISA buffer, and stored at -70° C. until assayed. The assay for eicosanoids (LTB4, T×B2, and PGE2) is performed as described by the manufacturer of the [^3 H]-RIA kit or ELISA kit (LTB4 -Amersham, TxB2 and PGE2 - Caymen Chemical).
The total eicosanoid level in 2 ml of blood is calculated and reported as ng/10^6 neutrophils. […] Drug effects are expressed as percent change from control values.
Compounds tested in vitro are solubilized in dimethylsulfoxide and diluted 1:10 in 10% bovine serum albumin in phosphate buffer saline resulting in a final dimethylsulfoxide concentration of 0.1% i n the blood.

The structures appear in SMILES notation. pIC50: −log10 of the molar value.

What is called inhibition is the change of the read-out against control, counted positive when it falls. For `CC1=C(CC(=O)O)c2cc(F)ccc2C1=Cc1ccc(OCc2ccc3ccccc3n2)cc1` [Example 4, 5-Fluoro-2-methyl-1-[[4-(2-quinolinylmethoxy)phenyl]methylene]-1H-indene-3-acetic acid], the inhibition at 500 µM in experiment [1] (at 0.5 mM) is 92%; in experiment [2] it was 7%. Further, the inhibition at human platelet PLA2 came out at 58%; in experiment [3], 48%.
For the compound `CC1=C(CC(=O)O)c2cc(OCc3ccc4ccccc4n3)ccc2C1=Cc1ccc(OCc2ccc3ccccc3n2)cc1` [Example 41, 2-Methyl-5-(2-quinolinylmethoxy)-1-[[4-(2-quinolinylmethoxy)phenyl]methylene]-1H-indene-3-acetic acid], in experiment [1] (at 10 mM, negative number denotes potentiation), the inhibition at 10000 µM came to 100%. Further, the inhibition at 500 µM in experiment [2] is -21%. Moreover, the values for the inhibition (at human platelet PLA2; in experiment [3]) were 90% and 3.8%, respectively.
Usually pIC50 stands for −log10 of the IC50, conventionally taken in molar units. With `Cc1c(CC(=O)NO)c2cc(OCc3nc4ccccc4s3)ccc2n1Cc1ccc(Cl)cc1` [Example 46, 5-(2-Benzothiazolylmethoxy)-1-[(4-chlorophenyl)methyl]-N-hydroxyl-2-methyl-1H-indole-3-acetamide], on human platelet PLA2, the inhibition is 13%. The inhibition in experiment [3] was 48%. Moreover, in experiment [4], the “% Inhibition of LTB4” value worked out at 30% and the pIC50 was 4.83.
On to `CONC(=O)Cc1c(C)n(Cc2ccc(Cl)cc2)c2ccc(OCc3nc4ccccc4s3)cc12` [Example 47, 5-(2-Benzothiazolylmethoxy)-1-[(4-chlorophenyl)methyl]-N-methoxy-2-methyl-1H-indole-3-acetamide hemihydrate.], for which the inhibition was 5% on human platelet PLA2 and 2% in experiment [3]. Further, in experiment [4], the “% Inhibition of LTB4” value was found to be 31%.
Regarding `Cc1c(CC(=O)N(C)O)c2cc(OCc3nc4ccccc4s3)ccc2n1Cc1ccc(Cl)cc1` [Example 49, 5-(2-Benzothiazolylmethoxy)-1-[(4-chlorophenyl)methyl]N-hydroxyl-N,2-dimethyl-1H -indole-3-acetamide], the inhibition on human platelet PLA2 was 6%; in experiment [3] it was 4%. Moreover, in experiment [4], the “% Inhibition of LTB4” value was 61%. In addition, the pIC50 in experiment [4] was 4.91.
On to `Cc1c(CC(=O)O)c2cc(OCc3nc4ccccc4s3)ccc2n1Cc1ccccc1` [Example 51, 5-(2-Benzothiazolylmethoxy)-1-(phenylmethyl)-2-methyl-1H-indole-3-acetic acid], for which the inhibition on human platelet PLA2 was determined as 41%; in experiment [3], 88%. In addition, the “% Inhibition of LTB4” value in experiment [4] came to 5%.
Taken in the same sequence, the figures for `CSc1ccc(Cn2c(C)c(CC(=O)O)c3cc(OCc4nc5ccccc5s4)ccc32)cc1` [Example 54, 5-(2-Benzothiazolylmethoxy)-1-[[4-(methylthio)phenyl]methyl]-2-methyl-1H-indole-3-acetic acid] were 2%, 44% and 11%.
Consider `Cc1c(CCO)c2cc(OCc3csc(-c4ccccc4)n3)ccc2n1Cc1ccccc1` [Example 55, 5-[(2-Phenyl-4-thiazolyl)methoxy]-1-(phenylmethyl)-2-methyl-1H-indole-3-ethanol], for which the inhibition amounted to 13% at human platelet PLA2 and 4% in experiment [3]. For the same compound, the “% Inhibition of LTB4” value in experiment [4] came to 19%.
As to `CC(=O)OCCc1c(C)n(Cc2ccccc2)c2ccc(OCc3csc(-c4ccccc4)n3)cc12` [Example 56, 5-[(2-Phenyl-4-thiazolyl)methoxy]-1-(phenylmethyl)-2-methyl-1H-indole-3-ethanol acetate ester], the inhibition at human platelet PLA2 came to 2%. The “% Inhibition of LTB4” value in experiment [4] is 2%.
As for `COc1cccc(Cn2c(C)c(CC(=O)O)c3cc(OCc4csc(-c5ccccc5)n4)ccc32)c1` [Example 60, 5-[(2-Phenyl-4-thiazolyl)methoxy)-1-[[(3-methoxy)phenyl]methyl]-2-methyl-1H-indole-3-acetic acid], the results for the inhibition (at human platelet PLA2; in experiment [3]) were 3% and 84%, respectively. Moreover, the “% Inhibition of LTB4” value in experiment [4] came to 35%.
In the case of `Cc1c(CC(=O)O)c2cc(OCc3csc(-c4ccccc4)n3)ccc2n1Cc1csc(-c2ccc(Cl)cc2)n1` [Example 65, 5-[(2-Phenyl-4-thiazolyl)methoxy]-1-[[2-(4-chlorophenyl)-4-thiazolyl]methyl]-2-methyl-1H-indole-3-acetic acid], the inhibition came to 85% at human platelet PLA2 and 89% in experiment [3]. In addition, the “% Inhibition of LTB4” value in experiment [4] worked out at 22%.
